Data: US4452986A, “Imidazolyl-substituted benzofurans” (The Upjohn Company, priority 1982, dated 1984)
Counter-ions that a name gives are not always drawn.

Target: T1, TXA2 synthetase (human platelet microsomes) (Homo sapiens, UniProt P24557)
T1 construct: human platelet microsomes (HPM); from tissue; host or cells: human platelets (microsomes)
T1 sequence (P24557 1-533): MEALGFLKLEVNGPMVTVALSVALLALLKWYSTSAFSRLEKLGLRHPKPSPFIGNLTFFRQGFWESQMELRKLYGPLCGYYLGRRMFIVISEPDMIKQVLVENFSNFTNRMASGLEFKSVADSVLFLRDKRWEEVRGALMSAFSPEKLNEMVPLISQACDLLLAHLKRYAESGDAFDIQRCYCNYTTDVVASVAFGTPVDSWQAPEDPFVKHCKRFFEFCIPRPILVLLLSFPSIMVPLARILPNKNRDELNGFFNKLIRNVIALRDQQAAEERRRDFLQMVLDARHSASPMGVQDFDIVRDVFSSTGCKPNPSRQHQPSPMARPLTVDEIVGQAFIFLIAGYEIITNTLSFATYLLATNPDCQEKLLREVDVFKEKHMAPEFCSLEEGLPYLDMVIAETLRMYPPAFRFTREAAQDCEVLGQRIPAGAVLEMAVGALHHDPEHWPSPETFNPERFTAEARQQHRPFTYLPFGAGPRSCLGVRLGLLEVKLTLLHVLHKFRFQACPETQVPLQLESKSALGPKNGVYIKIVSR
Experiment: TXA2 inhibition test: TXA2 generated from PGH2 with human platelet microsomes, response of superfused rabbit aortic strips
Type: biochemical
Conditions: human platelet microsomes + PGH2, rabbit aorta bioassay
Method: The compounds of the present invention were tested for TXA2 inhibition as follows:
Rabbit aortic strips were superfused in series with Krebs solution. Thromboxane A2 (TXA2) was generated by mixing prostaglandin H2 (PGH2) with human platelet microsomes (HPM).
Potential inhibitors were tested by comparing the response of the rabbit aorta to the amount of TXA2 produced by mixing PGH2 and HPM without the test compound in the reaction medium and then the amount of TXA2 produced when the test compound was added to the HPM 5 minutes before the HPM was mixed with PGH2. […] For a discussion of TXA2 synthetase inhibition testing see, e.g., R. Gorman, supra.

effectiveness in inhibiting TXA2 formation (rank among tested compounds): most effective
SMILES: O=C(O)c1cc2cc(Cn3ccnc3)ccc2o1 [Example 3, 5-N-Imidazolylmethyl-benzofuran-2-carboxylic Acid, Sodium Salt]
